Assay results from patent publication US20240391926A1, “SPIROINDOLINONE COMPOUNDS AS Kv1.3 POTASSIUM SHAKER CHANNEL BLOCKERS” (D.E. Shaw Research, LLC, priority 2021, published 2024).
pIC50: −log10 of the molar value.

These compounds were tested against T1, Kv1.3 potassium channel (Homo sapiens, UniProt P22001) (assay: Kv1.3 potassium channel blocker activity, automated whole-cell patch clamp (Patchliner) in CHO-K1 cells stably expressing Kv1.3). Conditions: 30 nM-100 μM.
T1 construct: expressed in transfected cells
T1 sequence (P22001 whole entry): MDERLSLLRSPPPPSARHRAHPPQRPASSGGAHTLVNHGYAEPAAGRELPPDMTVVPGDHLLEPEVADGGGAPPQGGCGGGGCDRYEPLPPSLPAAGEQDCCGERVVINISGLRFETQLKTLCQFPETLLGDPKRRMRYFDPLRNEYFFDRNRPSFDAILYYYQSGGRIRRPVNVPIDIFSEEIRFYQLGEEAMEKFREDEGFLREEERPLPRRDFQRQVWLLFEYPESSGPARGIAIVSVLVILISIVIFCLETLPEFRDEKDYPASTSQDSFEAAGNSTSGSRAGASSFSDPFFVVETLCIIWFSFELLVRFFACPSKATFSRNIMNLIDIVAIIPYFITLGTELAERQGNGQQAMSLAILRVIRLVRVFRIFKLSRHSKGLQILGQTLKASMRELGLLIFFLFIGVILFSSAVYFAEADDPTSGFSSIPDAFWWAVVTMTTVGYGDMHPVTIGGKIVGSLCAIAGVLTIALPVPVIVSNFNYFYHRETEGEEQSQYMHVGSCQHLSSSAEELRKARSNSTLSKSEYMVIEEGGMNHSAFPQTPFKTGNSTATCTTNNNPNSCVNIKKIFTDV
Format: cell-based
Description: This assay is used to evaluate the disclosed compounds' activities as Kv1.3 potassium channel blockers.
CHO-K1 cells stably expressing Kv1.3 were grown in DMEM containing 10% heat-inactivated FBS, 1 mM sodium pyruvate, 2 mM L-glutamine, and G418 (500 μg/ml). Cells were grown in culture flasks at 37° C. in a 5% CO2-humidified incubator.
The cells were bathed in an extracellular solution containing 140 mM NaCl, 4 mM KCl, 2 mM CaCl2), 1 mM MgCl2, 5 mM glucose, 10 mM HEPES; pH adjusted to 7.4 with NaOH; 295-305 mOsm. The internal solution contained 50 mM KCl, 10 mM NaCl, 60 mM KF, 20 mM EGTA, 10 mM HEPES; pH adjusted to 7.2 with KOH; 285 mOsm. All compounds were dissolved in DMSO at 30 mM. Compound stock solutions were freshly diluted with external solution to concentrations of 30 nM, 100 nM, 300 nM, 1 μM, 3 μM, 10 μM, 30 μM and 100 μM. The highest content of DMSO (0.3%) was present in 100 μM.
The currents were evoked by applying 100 ms depolarizing pulses from −90 mV (holding potential) to +40 mV were applied with 0.1 Hz frequency. Control (compound-free) and compound pulse trains for each compound concentration applied contained 20 pulses. 10-second breaks were used between pulse trains (see Table A below).
Whole-cell current recordings and compound application were enabled by means of an automated patch clamp platform Patchliner (Nanion Technologies GmbH). EPC 10 patch clamp amplifier (HEKA Elektronik Dr. Schulze GmbH) along with Patchmaster software (HEKA Elektronik Dr. Schulze GmbH) was used for data acquisition. Data were sampled at 10 kHz without filtering. Passive leak currents were subtracted online using a P/4 procedure (HEKA Elektronik Dr. Schulze GmbH). Increasing compound concentrations were applied consecutively to the same cell without washouts in between. Total compound incubation time before the next pulse train was not longer than 10 seconds. Peak current inhibition was observed during compound equilibration.
AUC and peak values were obtained with Patchmaster (HEKA Elektronik Dr. Schulze GmbH). To determine IC50, the last single pulse in the pulse train corresponding to a given compound concentration was used. Obtained AUC and peak values in the presence of compound were normalized to control values in the absence of compound. Using Origin (OridinLab), IC50 was derived from data fit to Hill equation: Icompound/Icontrol=(100−A)/(1+([compound]/IC50)nH)+A, where IC50 value is the concentration at which current inhibition is half-maximal, [compound] is the applied compound concentration, A is the fraction of current that is not blocked and nH is the Hill coefficient.

`O=C([C@H]1CC[C@H](CO)C1)N1CC[C@]2(C1)C(=O)Nc1cc(Cl)c(Cl)cc12` (relative stereo) [Compound 99, (3S)-5,6-dichloro-1′-[(1R,3R)-rel-3-(hydroxymethyl)cyclopentanecarbonyl]-1H-spiro[indole-3,3′-pyrrolidin]-2-one isomer 1] and `O=C([C@@H]1CC[C@@H](CO)C1)N1CC[C@]2(C1)C(=O)Nc1cc(Cl)c(Cl)cc12` (single isomer, unassigned; isomer 2) [Compound 100] cannot be ordered by pIC50: > 5.52 for the first, > 5.52 for the second.

`O=C(C1C[C@H](O)[C@@H](O)C1)N1CC[C@]2(C1)C(=O)Nc1cc(Cl)c(Cl)cc12` (relative stereo) [Compound 106] and `O=C([C@@H]1CC[C@H](O)[C@@H](O)C1)N1CC[C@]2(C1)C(=O)Nc1cc(Cl)c(Cl)cc12` (single isomer, unassigned; isomer 1) [Compound 103] cannot be ordered by pIC50: > 6.00 for the first, > 6.00 for the second.

`O=C([C@@H]1C[C@H]1CO)N1CC[C@]2(C1)C(=O)Nc1cc(Cl)c(Cl)cc12` (relative stereo) [Compound 150, (S)-5,6-dichloro-1′-(1R,2R)-rel-2-(hydroxymethyl)cyclopropane-1-carbonyl)spiro[indoline-3,3′-pyrrolidin]-2-one] and `O=C([C@@H]1C[C@@H]1CO)N1CC[C@]2(C1)C(=O)Nc1cc(Cl)c(Cl)cc12` (relative stereo) [Compound 151, (S)-5,6-dichloro-1′-(1R,2S)-rel-2-(hydroxymethyl)cyclopropane-1-carbonyl)spiro[indoline-3,3′-pyrrolidin]-2-one] cannot be ordered by pIC50: > 6.00 for the first, > 6.00 for the second.

`O=C([C@@H]1CNC[C@@H]1O)N1CC[C@]2(C1)C(=O)Nc1cc(Cl)c(Cl)cc12` (single isomer, unassigned) [Compound 1] and `O=C([C@H]1CNC[C@@H]1O)N1CC[C@]2(C1)C(=O)Nc1cc(Cl)c(Cl)cc12` (single isomer, unassigned) [Compound 4] cannot be ordered by pIC50: > 6.00 for the first, > 6.00 for the second.

`O=C1Nc2cc(Cl)c(Cl)cc2[C@]12CCN(c1ccn[nH]1)C2` (single isomer, unassigned) [Compound 153] and `NC(=O)N1CC[C@]2(C1)C(=O)Nc1cc(Cl)c(Cl)cc12` (single isomer, unassigned) [Compound 154] cannot be ordered by pIC50: > 5.52 for the first, > 6.00 for the second.

`NC(=O)N1CC[C@@]2(C1)C(=O)Nc1cc(Cl)c(Cl)cc12` (single isomer, unassigned) [Compound 155] and `CN(C)CC(=O)N1CCC2(C1)C(=O)Nc1cc(Cl)c(Cl)cc12` (stereo not drawn) [Compound 7, 5,6-dichloro-1′-(dimethylglycyl)spiro[indoline-3,3′-pyrrolidin]-2-one] cannot be ordered by pIC50: > 5.52 for the first, > 5.52 for the second.

`C[C@@H]1CN(C(=O)CO)CC12C(=O)Nc1cc(Cl)c(Cl)cc12` (single isomer, unassigned; diastereoisomer 1) [Compound 130, 5,6-dichloro-1′-(2-hydroxyacetyl)-4′-methylspiro[indoline-3,3′-pyrrolidin]-2-one diastereoisomer 1] and `C[C@H]1CN(C(=O)CO)CC12C(=O)Nc1cc(Cl)c(Cl)cc12` (single isomer, unassigned; diastereoisomer 2) [Compound 131, 5,6-dichloro-1′-(2-hydroxyacetyl)-4′-methylspiro[indoline-3,3′-pyrrolidin]-2-one diastereoisomer 2] cannot be ordered by pIC50: > 4.52 for the first, > 6.00 for the second.

`C[C@@H]1N(C(=O)CO)CCC12C(=O)Nc1cc(Cl)c(Cl)cc12` (single isomer, unassigned; diastereoisomer 1) [Compound 133, 5,6-dichloro-1′-(2-hydroxyacetyl)-2′-methylspiro[indoline-3,3′-pyrrolidin]-2-one diastereoisomer 1] and `C[C@H]1N(C(=O)CO)CCC12C(=O)Nc1cc(Cl)c(Cl)cc12` (single isomer, unassigned; diastereoisomer 2) [Compound 134, 5,6-dichloro-1′-(2-hydroxyacetyl)-2′-methylspiro[indoline-3,3′-pyrrolidin]-2-one diastereoisomer 2] cannot be ordered by pIC50: > 5.52 for the first, > 5.00 for the second.

`O=C(N1CC[C@]2(C1)C(=O)Nc1cc(Cl)c(Cl)cc12)[C@]1(F)CCNC1` (single isomer, unassigned; isomer 1) [Compound 28] and `O=C(N1CC[C@]2(C1)C(=O)Nc1cc(Cl)c(Cl)cc12)C1(O)CCNC1` (single isomer, unassigned; isomer 1) [Compound 30] cannot be ordered by pIC50: > 6.00 for the first, > 6.00 for the second.

`O=C1Nc2cc(Cl)c(Cl)cc2[C@]12CCN(C(=O)[C@]13CNCC1C3)C2` (single isomer, unassigned; isomer 1) [Compound 32] and `O=C(N1CC[C@]2(C1)C(=O)Nc1cc(Cl)c(Cl)cc12)C12CNCC1C2` (single isomer, unassigned; isomer 2) [Compound 33] cannot be ordered by pIC50: > 6.00 for the first, > 6.00 for the second.

`O=C([C@H]1[C@@H]2CN[C@H]1C2)N1CC[C@]2(C1)C(=O)Nc1cc(Cl)c(Cl)cc12` (single isomer, unassigned; isomer 1) [Compound 57] and `O=C([C@@H]1[C@@H]2CN[C@H]1C2)N1CC[C@]2(C1)C(=O)Nc1cc(Cl)c(Cl)cc12` (single isomer, unassigned; isomer 2) [Compound 58] cannot be ordered by pIC50: > 5.52 for the first, > 6.00 for the second.

`O=C1C[C@H](C(=O)N2CC[C@]3(C2)C(=O)Nc2cc(Cl)c(Cl)cc23)CN1` (single isomer, unassigned; isomer 1) [Compound 74] and `O=C1CC(C(=O)N2CC[C@]3(C2)C(=O)Nc2cc(Cl)c(Cl)cc23)CN1` (single isomer, unassigned; isomer 2) [Compound 75] cannot be ordered by pIC50: > 6.00 for the first, > 5.52 for the second.

`O=C([C@H]1CC[C@@H](O)[C@H](O)C1)N1CC[C@]2(C1)C(=O)Nc1cc(Cl)c(Cl)cc12` (single isomer, unassigned; isomer 1) [Compound 107] and `O=C([C@H]1CC[C@H](O)[C@@H](O)C1)N1CC[C@]2(C1)C(=O)Nc1cc(Cl)c(Cl)cc12` (single isomer, unassigned; isomer 2) [Compound 108] cannot be ordered by pIC50: > 6.00 for the first, > 5.52 for the second.

`C[C@H]1C[C@]2(CN1C(=O)CO)C(=O)Nc1cc(Cl)c(Cl)cc12` (single isomer, unassigned; isomer 1) [Compound 123, 5,6-dichloro-1′-(2-hydroxyacetyl)-5′-methyl-1H-spiro[indole-3,3′-pyrrolidin]-2-one isomer 1] and `C[C@@H]1C[C@@]2(CN1C(=O)CO)C(=O)Nc1cc(Cl)c(Cl)cc12` (single isomer, unassigned; isomer 2) [Compound 124, 5,6-dichloro-1′-(2-hydroxyacetyl)-5′-methyl-1H-spiro[indole-3,3′-pyrrolidin]-2-one isomer 2] cannot be ordered by pIC50: > 4.52 for the first, > 5.00 for the second.

`O=C(N1CC[C@]2(C1)C(=O)Nc1cc(Cl)c(Cl)cc12)[C@@]1(O)CCNC1` (single isomer, unassigned; isomer 2) [Compound 31] and `O=C([C@@H]1CC[C@@](O)(CO)C1)N1CC[C@]2(C1)C(=O)Nc1cc(Cl)c(Cl)cc12` (single isomer, unassigned; isomer 2) [Compound 96] cannot be ordered by pIC50: > 5.52 for the first, > 5.52 for the second.

`O=C([C@@H]1CC[C@@H](O)C1)N1CC[C@]2(C1)C(=O)Nc1cc(Cl)c(Cl)cc12` (single isomer, unassigned; isomer 2) [Compound 64] and `O=C([C@H]1CC[C@@H](O)C1)N1CC[C@]2(C1)C(=O)Nc1cc(Cl)c(Cl)cc12` (single isomer, unassigned; isomer 3) [Compound 65] cannot be ordered by pIC50: > 5.52 for the first, > 5.52 for the second.

`O=C([C@@H]1CC[C@](O)(CO)C1)N1CC[C@]2(C1)C(=O)Nc1cc(Cl)c(Cl)cc12` (single isomer, unassigned; isomer 2) [Compound 98] and `O=C([C@@H]1CC[C@H](O)C1)N1CC[C@]2(C1)C(=O)Nc1cc(Cl)c(Cl)cc12` (single isomer, unassigned; isomer 4) [Compound 66] cannot be ordered by pIC50: > 5.52 for the first, > 5.52 for the second.

`C[C@@H]1C[C@]2(CN1C(=O)CO)C(=O)Nc1cc(Cl)c(Cl)cc12` (single isomer, unassigned; isomer 3) [Compound 125, 5,6-dichloro-1′-(2-hydroxyacetyl)-5′-methyl-1H-spiro[indole-3,3′-pyrrolidin]-2-one isomer 3] and `C[C@H]1C[C@@]2(CN1C(=O)CO)C(=O)Nc1cc(Cl)c(Cl)cc12` (single isomer, unassigned; isomer 4) [Compound 126, 5,6-dichloro-1′-(2-hydroxyacetyl)-5′-methyl-1H-spiro[indole-3,3′-pyrrolidin]-2-one isomer 4] cannot be ordered by pIC50: > 6.00 for the first, > 5.00 for the second.
